Active and inactive are the calls of the source. The rule behind the calls is not given here.
What was measured:
Mus musculus [1] = assay: inhibition of acute TPA-induced ear swelling in mice on oral administration of 0.1 nmol/kg; assay type: functional
Mus musculus [2] = assay: inhibition of acute TPA-induced ear swelling in mice on oral administration of 0.1 nmol/kg; not active; assay type: functional, organism-based
Mus musculus [3] = assay: Percent inhibition of acute TPA-induced ear swelling in mice upon topical application at 2x 100 ug; assay type: functional
[4] = Inhibitory dose was determined; assay type: functional; settings: read-out: ID50 (the source's name)
Mus musculus [5] = assay: inhibition of acute TPA-induced ear swelling in mice upon topical application of 2x 100 ug; assay type: functional

Question: With `Cc1cc(C)nc(NC(=O)CCc2cn(Cc3ccccc3)c3ccccc23)c1` as the compound, how does the inhibition in vivo at 0.0001 µmol/kg (Mus musculus [1]) read?
Answer: The inhibition in vivo at 0.0001 µmol/kg was 61%.

Question: Which inhibition in vivo at 0.0001 µmol/kg (Mus musculus [1]) does the source give for `O=C(CCc1cn(Cc2ccccc2)c2ccccc12)NCc1cccnc1` here?
Answer: Its inhibition in vivo at 0.0001 µmol/kg is 70%.

Question: For `O=C(CCc1c[nH]c2ccccc12)NCc1cccnc1`, which inhibition (Mus musculus [2]) is on record?
Answer: Its inhibition is “inactive”.

Question: Which inhibition in vivo at 0.0001 µmol/kg (Mus musculus [1]) does the source give for `O=C(CCc1cn(CCN2CCOCC2)c2ccccc12)Nc1ccncc1` here?
Answer: Its inhibition in vivo at 0.0001 µmol/kg is 63%.

Question: With `Cc1cc(C)nc(NC(=O)CCc2cn(Cc3ccc(Cl)cc3)c3ccccc23)c1` as the compound, how does the inhibition in vivo at 0.0001 µmol/kg (Mus musculus [1]) read?
Answer: Its inhibition in vivo at 0.0001 µmol/kg is 64%.

Question: What does the source list for `CC(C)Cc1ccc(C(C)C(=O)O)cc1` (configuration not stated) [IBUPROFEN]?
Answer: inhibition in vivo at 0.0001 µmol/kg (Mus musculus [1]): 35%; Inhibition (Mus musculus [3]): 59%

Question: For `C[C@@H]1C[C@H]2[C@@H]3CCC4=CC(=O)C=C[C@]4(C)[C@@]3(F)[C@@H](O)C[C@]2(C)[C@@]1(O)C(=O)CO` [DEXAMETHASONE], which inhibition in vivo at 0.0001 µmol/kg (Mus musculus [1]) is on record?
Answer: Its inhibition in vivo at 0.0001 µmol/kg is 82%.

Question: What about the Inhibition (Mus musculus [3]) of the same compound?
Answer: Its Inhibition is 96%.

Question: Which results are given for `Cc1cc(C)nc(NC(=O)CCc2c[nH]c3ccccc23)c1`?
Answer: inhibition in vivo at 0.0001 µmol/kg (Mus musculus [1]): 72%; Inhibition (Mus musculus [3]): 66%

Question: With `O=C(CCc1cn(Cc2ccc(Cl)cc2)c2ccc(Cl)cc12)NCc1cccnc1` as the compound, how does the inhibition in vivo at 0.0001 µmol/kg (Mus musculus [1]) read?
Answer: The inhibition in vivo at 0.0001 µmol/kg was 84%.

Question: What about the Inhibition (Mus musculus [3]) of the same compound?
Answer: The Inhibition was 94%.

Question: With `O=C(CCc1cn(Cc2ccc(Cl)cc2)c2ccccc12)Nc1ccncc1` as the compound, how does the inhibition in vivo at 0.0001 µmol/kg (Mus musculus [1]) read?
Answer: Its inhibition in vivo at 0.0001 µmol/kg is 72%.

Question: For `O=C(CCc1cn(Cc2ccc(Cl)cc2)c2ccc(Cl)cc12)Nc1ccncc1`, which inhibition in vivo at 0.0001 µmol/kg (Mus musculus [1]) is on record?
Answer: Its inhibition in vivo at 0.0001 µmol/kg is 64%.

Question: Which results are given for `Cc1cc(C)nc(NC(=O)/C=C/c2cn(Cc3ccc(F)cc3)c3ccccc23)c1`?
Answer: inhibition in vivo at 0.0001 µmol/kg (Mus musculus [1]): 80%; Inhibition (Mus musculus [3]): 66%

Question: For `O=C(CCc1cn(Cc2ccc(Cl)cc2)c2ccccc12)NCc1cccnc1`, which ED50 [4] is on record?
Answer: Its ED50 is 24 µmol/kg.

Question: What about the inhibition in vivo at 0.0001 µmol/kg (Mus musculus [1]) of the same compound?
Answer: The inhibition in vivo at 0.0001 µmol/kg was 92%.

Question: And the Inhibition (Mus musculus [3])?
Answer: Its Inhibition is 71%.

Question: With `Cc1cc(C)nc(NC(=O)CCc2cn(Cc3ccc(Cl)cc3)c3ccc(Cl)cc23)c1` as the compound, how does the inhibition in vivo at 0.0001 µmol/kg (Mus musculus [1]) read?
Answer: The inhibition in vivo at 0.0001 µmol/kg was 83%.

Question: What about the Inhibition (Mus musculus [3]) of the same compound?
Answer: Its Inhibition is 89%.

Question: Which inhibition in vivo at 0.0001 µmol/kg (Mus musculus [1]) does the source give for `O=C(CCc1cn(Cc2ccccc2)c2ccccc12)Nc1ccncc1` here?
Answer: The inhibition in vivo at 0.0001 µmol/kg was 84%.

Question: What about the Inhibition (Mus musculus [3]) of the same compound?
Answer: Its Inhibition is 90%.

Question: With `O=C(CCn1ccc2ccccc21)Nc1ccncc1` as the compound, how does the inhibition in vivo at 0.0001 µmol/kg (Mus musculus [1]) read?
Answer: Its inhibition in vivo at 0.0001 µmol/kg is 77%.

Question: With `O=C(CCc1c[nH]c2ccccc12)Nc1ccncc1` as the compound, how does the inhibition in vivo at 0.0001 µmol/kg (Mus musculus [1]) read?
Answer: Its inhibition in vivo at 0.0001 µmol/kg is 77%.

Question: And the Inhibition (Mus musculus [5])?
Answer: Its Inhibition is 38%.

— ChEMBL document CHEMBL1137105, “New N-pyridinyl(methyl)-indolalkanamides acting as topical inflammation inhibitors” (2004)
